From patent US20160250127A1, “USE OF A POLYOL IN THE REMINERALISATION OF ENAMEL” (ROQUETTE FRERES, priority 2013, published 2016)

Test system: early carious lesions (enamel lesions of anterior maxillary teeth)
Assay: QLF analysis of enamel lesion remineralization, 6-month clinical study of sugar-free chewing gums
Assay type: in vivo, human
Details: for stopping and reversing the oral white lesions, compared with the two control groups: 6-month study; for ΔF compared with gumbase group and control group without gum: after 3 months, P<0.01; for ΔF compared with the two control groups (gumbase and no gum) / ΔQ compared with the two control groups (gumbase and no gum): after 6 months, p<0.01
Text: The QLF™ (Quantitative Light-induced Fluorescence) method is a dental diagnostic tool for the quantitative evaluation, in vivo and in vitro, of dental carious lesions. The apparatus is equipped with a camera and is connected to a computer (using a program specific to QLF™). The probe, which emits a blue light (xenon lamp+filter), is passed over the tooth tested, which retransmits this light in the form of fluorescence. […] This photograph or instantaneous image is then processed using the software of the QLF™ which then recreates a reconstituted image representing the carious lesion. With this method, the real-time fluorescent images are entered into the computer and stored in an image database. Quantitative analysis of the images allows the user to quantify parameters such as loss of minerals, lesion depth, lesion size, size of the spots present on the teeth and seriousness of the various lesions with great precision and repeatability. The QLF™ method is based on the autofluorescence of the teeth. When the teeth are illuminated by the high-intensity blue light, they will begin to emit light in the green part of the spectrum. The intensity of the fluorescence of the dental material is directly related to the mineral content of the enamel. Since the QLF™ method uses fluorescence to reveal the dental carie, the contrast between the demineralized enamel and the healthy enamel is increased. Thus, the absence of specular reflection in the images obtained by the QLF™ method facilitates the calculation of the size and seriousness of the lesion by the digital image processing system. Evaluation of the efficacy against caries of a sugar-free chewing gum containing maltitol sold by the applicant under the brand SweetPearl™ using a study model consisting of various appropriate control groups (gum and maltitol, gum and xylitol, gum without polyol and no chewing gum) and the QLF™ method. Children from 8 to 13 years old, in good health, were included in the study. Their parents were informed about the study by the teachers of the school and signed an informed consent form. […] In total, 420 pupils completed a six-month study. This study is a double-blind (subjects, caregivers and examiners), multicenter, parallel, random clinical study carried out in schools. The evaluation of the dental plaque uses the Silness method and the Loe index. The digital images were taken using a digital photographic apparatus, and those of the QLF™ method were taken using the QLF™ apparatus separately. Before this examination, all the dental plaque was removed from the surface of the teeth. All the procedures were supervised by qualified personnel (dentists/hygienists). The QLF™ method was used to monitor the evolution of demineralization and remineralization of the enamel lesions. During the visit, fluorescent images were taken of the six (or fewer) anterior maxillary teeth. An image of each tooth was taken at each visit in order to ensure that all the anterior teeth were photographed. All the images taken using the QLF™ apparatus were analyzed by an experienced individual in order to determine the “mineral condition” of each tooth, using proprietory software (QLF 2.00, Inspektor, The Netherlands). The QLF™ method makes it possible to control three distinct parameters: ΔF, the area of the lesion and ΔQ. ΔF is the percentage loss of fluorescence between the comparison of a healthy enamel and an identified lesion. The detection threshold for ΔF is 5%, which means that a loss of fluorescence below this threshold is considered to be background noise and therefore not significant. The area of the lesion is calculated by means of the pixels taken into account by the analysis software as representing the demineralized enamel (i.e. those with a loss of fluorescence of at least 5%). ΔQ is the product of ΔF multiplied by the area of the lesion and represents the volume of this lesion. […]

[1] = 3 Months, 2 chewing gums (up to 60% polyol) 5 times per day
[2] = 6 Months, 2 chewing gums (up to 60% polyol) 5 times per day
[3] = Baseline, children 8-13 years, mean ± spread

SMILES: OC[C@@H](O)[C@@H](O[C@H]1O[C@H](CO)[C@@H](O)[C@H](O)[C@H]1O)[C@H](O)[C@@H](O)CO [Maltitol, maltitol]
- QLF parameter Area (area of the lesion) [1]: 2.33 ± 1.90
- QLF parameter ΔF (percentage loss of fluorescence) [1]: −8.78 ± 1.78
- QLF parameter ΔQ (ΔF multiplied by area of the lesion) [1]: −20.62 ± 18.97
- stopping and reversing the oral white lesions, compared with the two control groups: significantly more effective
- QLF parameter Area (area of the lesion) [2]: 2.18 ± 1.63
- QLF parameter ΔF (percentage loss of fluorescence) [2]: −8.42 ± 1.87
- QLF parameter ΔQ (ΔF multiplied by area of the lesion) [2]: −16.69 ± 15.15
- QLF parameter ΔF (percentage loss of fluorescence) (Baseline, children 8-13 years): −9.38 ± 1.79
- QLF parameter ΔQ (ΔF multiplied by area of the lesion) (Baseline, children 8-13 years): −24.87 ± 23.06
- QLF parameter Area (area of the lesion) [3]: 2.47 ± 1.95
- ΔF compared with gumbase group and control group without gum: significantly different
- ΔF compared with the two control groups (gumbase and no gum): considerable differences
- ΔQ compared with the two control groups (gumbase and no gum): considerable differences

SMILES: OC[C@@H](O)[C@H](O)[C@@H](O)CO [Xylitol, xylitol]
- QLF parameter Area (area of the lesion) [1]: 2.43 ± 1.72
- QLF parameter ΔF (percentage loss of fluorescence) [1]: −8.56 ± 2.02
- QLF parameter ΔQ (ΔF multiplied by area of the lesion) [1]: −22.10 ± 18.85
- stopping and reversing the oral white lesions, compared with the two control groups: significantly more effective
- QLF parameter Area (area of the lesion) [2]: 2.31 ± 1.85
- QLF parameter ΔF (percentage loss of fluorescence) [2]: −8.37 ± 1.78
- QLF parameter ΔQ (ΔF multiplied by area of the lesion) [2]: −18.19 ± 21.29
- QLF parameter ΔF (percentage loss of fluorescence) (Baseline, children 8-13 years): −9.36 ± 1.92
- QLF parameter ΔQ (ΔF multiplied by area of the lesion) (Baseline, children 8-13 years): −25.95 ± 24.66
- QLF parameter Area (area of the lesion) [3]: 2.58 ± 1.91
- ΔF compared with gumbase group and control group without gum: significantly different
- ΔF compared with the two control groups (gumbase and no gum): considerable differences
- ΔQ compared with the two control groups (gumbase and no gum): considerable differences
